Activity calls are given as the source filed them.
How the values were obtained:
[1] = test system: Escherichia coli; test: microbe, parasite or virus in culture
[2] = molecular target: T1, Calpain-2 catalytic subunit (Sus scrofa, UniProt P43367); test: m-calpain protease blockers, concentration series – biochemical, fluorogenic peptide substrate, dose response (AID 1420); type: functional
T1 sequence (P43367 whole entry): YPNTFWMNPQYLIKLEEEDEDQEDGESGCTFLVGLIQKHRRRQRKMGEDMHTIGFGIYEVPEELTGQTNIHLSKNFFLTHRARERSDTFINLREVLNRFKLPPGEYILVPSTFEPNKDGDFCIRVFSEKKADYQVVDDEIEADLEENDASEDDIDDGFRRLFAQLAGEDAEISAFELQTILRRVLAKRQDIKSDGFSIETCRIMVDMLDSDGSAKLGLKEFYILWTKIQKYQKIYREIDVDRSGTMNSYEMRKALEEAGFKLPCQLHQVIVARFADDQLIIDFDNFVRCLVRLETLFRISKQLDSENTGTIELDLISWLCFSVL

[3] = test system: Escherichia coli; test: microbe, parasite or virus in culture; remark: listed apart in the source
[4] = molecular target: T2, DNA topoisomerase (Yersinia pestis, UniProt A0A2S9PM60); test: Yersinia topoisomerase I cleavage product accumulation – biochemical, cherry-pick, dose response (AID 588525)
T2 sequence (A0A2S9PM60 whole entry): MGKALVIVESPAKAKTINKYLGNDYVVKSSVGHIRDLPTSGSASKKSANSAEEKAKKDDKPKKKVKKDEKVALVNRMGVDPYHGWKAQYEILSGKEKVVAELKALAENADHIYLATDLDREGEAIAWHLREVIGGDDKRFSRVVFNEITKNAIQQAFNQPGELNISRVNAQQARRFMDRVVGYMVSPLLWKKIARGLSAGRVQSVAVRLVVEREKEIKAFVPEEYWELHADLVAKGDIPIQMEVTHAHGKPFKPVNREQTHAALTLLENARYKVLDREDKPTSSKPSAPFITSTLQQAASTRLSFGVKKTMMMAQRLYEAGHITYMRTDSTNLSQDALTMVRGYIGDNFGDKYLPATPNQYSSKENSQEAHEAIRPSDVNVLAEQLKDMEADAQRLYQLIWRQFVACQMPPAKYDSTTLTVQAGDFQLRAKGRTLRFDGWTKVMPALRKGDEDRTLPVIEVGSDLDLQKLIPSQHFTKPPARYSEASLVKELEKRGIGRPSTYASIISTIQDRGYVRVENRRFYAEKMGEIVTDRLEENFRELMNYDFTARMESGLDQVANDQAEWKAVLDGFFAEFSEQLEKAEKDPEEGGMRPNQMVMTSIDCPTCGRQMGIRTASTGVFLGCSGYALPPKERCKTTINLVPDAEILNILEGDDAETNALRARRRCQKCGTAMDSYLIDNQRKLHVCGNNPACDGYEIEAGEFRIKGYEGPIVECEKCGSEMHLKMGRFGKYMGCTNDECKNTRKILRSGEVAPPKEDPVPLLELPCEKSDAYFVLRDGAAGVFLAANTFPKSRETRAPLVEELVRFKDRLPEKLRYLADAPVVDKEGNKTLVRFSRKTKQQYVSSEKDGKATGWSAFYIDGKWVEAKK

[5] = molecular target: T3, Low molecular weight phosphotyrosine protein phosphatase (Homo sapiens, UniProt P24666); type: functional; conditions: read-out: IC50_Mean
T3 sequence (P24666 whole entry): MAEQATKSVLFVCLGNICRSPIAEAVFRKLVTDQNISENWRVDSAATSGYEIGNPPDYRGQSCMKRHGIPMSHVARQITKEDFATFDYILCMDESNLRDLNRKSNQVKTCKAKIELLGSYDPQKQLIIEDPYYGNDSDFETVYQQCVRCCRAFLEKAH

[6] = molecular target: Genome polyprotein (dengue virus type 2, UniProt P29990); test: flavivirus cap methylation enzyme inhibition – biochemical, confirmation dose response, primary screen (AID 588689); type: functional
[7] = molecular target: T3, Low molecular weight phosphotyrosine protein phosphatase; type: functional; conditions: read-out: IC50_Mean; remark: listed apart in the source
[8] = Late-stage probe development counterscreen for inhibitors of the Hepatitis C Virus non-structural protein 3 helicase (NS3): luminescence-based cell-based dose response assay to determine whether compounds that inhibit replication of HCV RNA replicon are cytotoxic. [Related pubchem assays (depositor defined):AID1800, AID1830, AID1845, AID1943, AID1945, AID2172, AID2173, AID2474, AID2476]; type: functional
[9] = test system: Vero; test: viability of Vero cells under compound – cytotoxicity control for flavivirus capping enzyme inhibitors (AID 588742); type: functional; conditions: Chlorocebus sabaeus
[10] = molecular target: NS3 (Hepatitis C virus, UniProt A3EZJ3); test: PubChem AID 2173; design: species or system Hepacivirus hominis
[11] = viability loss of HMLE_sh_eGFP cells – cell-based, luminescence, counter-screen for HMLE_sh_ECad selective toxicity project, dose response (AID 463074); type: functional, Homo sapiens;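 note: HMLE human mammary epithelial cells expressing control shRNA against eGFP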
[12] = test system: INS1; test: INS-1E survival protection against cytokine death – cell-based, luminescence, retest, dose response (AID 449756); type: functional; conditions: Rattus norvegicus;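 note: cell death triggered by IL-1 beta plus TNF-alpha plus IFN-gamma mixture; protective hits raise ATP signal compared with cytokine alone wells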
[13] = Luminescence Cell-Based Dose Retest to Confirm Inhibitors of Cancer Stem Cells. [Related pubchem assays (depositor defined):AID2717, AID2721]; type: functional; conditions: Homo sapiens
[14] = molecular target: Dual specificity protein kinase CLK1 (Homo sapiens, UniProt P49759); test: inhibition of human CLK1 activity – biochemical, cherry-picked samples, selectivity assay for Dyrk1A inhibitor project, dose response (AID 588811)
[15] = molecular target: Dual specificity tyrosine-phosphorylation-regulated kinase 1A (Rattus norvegicus, UniProt Q63470); type: biochemical, Homo sapiens
[16] = viability of uninfected HEp-2 cells – cell-based, HTS, cytotoxicity control for RSV inhibitor project, dose response (AID 2410); type: functional; conditions: human respiratory syncytial virus
[17] = test system: A-375; test: MITF: Counter assay: A375 proliferation Measured in Cell-Based System Using Plate Reader - 2084-03_Inhibitor_Dose_DryPowder_Activity. [Related pubchem assays (depositor defined):AID488944]; type: functional; conditions: Homo sapiens
[18] = test system: Jurkat; test: blockers of NF-kB activation in T cells – Jurkat, luciferase reporter, luminescence, B- and T-cell, dose response (AID 489004); type: functional, cell-based; conditions: Homo sapiens;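 note: NF-kB luciferase reporter Jurkat cells stimulated with PMA plus ionomycin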
[19] = reduction of Shn3 3'UTR-driven luciferase in osteoblasts – cell-based, Clone20 osteoblasts, firefly luciferase, cherry-picked, dose response (AID 624132); type: functional;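 note: firefly luciferase luminescence from reporter carrying the Shn3 3'UTR in osteoblasts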
[20] = molecular target: T4, Microphthalmia-associated transcription factor (Homo sapiens, UniProt O75030); test: reducers of TRPM1 reporter luminescence, concentration series – cell-based, SK-MEL-5, cherry-picked, set 3, MITF inhibitor project, dose response (AID 493073); type: functional;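 note: SK-MEL-5 melanoma cells with luciferase driven by the MITF target TRPM1 promoter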
T4 sequence (O75030 whole entry): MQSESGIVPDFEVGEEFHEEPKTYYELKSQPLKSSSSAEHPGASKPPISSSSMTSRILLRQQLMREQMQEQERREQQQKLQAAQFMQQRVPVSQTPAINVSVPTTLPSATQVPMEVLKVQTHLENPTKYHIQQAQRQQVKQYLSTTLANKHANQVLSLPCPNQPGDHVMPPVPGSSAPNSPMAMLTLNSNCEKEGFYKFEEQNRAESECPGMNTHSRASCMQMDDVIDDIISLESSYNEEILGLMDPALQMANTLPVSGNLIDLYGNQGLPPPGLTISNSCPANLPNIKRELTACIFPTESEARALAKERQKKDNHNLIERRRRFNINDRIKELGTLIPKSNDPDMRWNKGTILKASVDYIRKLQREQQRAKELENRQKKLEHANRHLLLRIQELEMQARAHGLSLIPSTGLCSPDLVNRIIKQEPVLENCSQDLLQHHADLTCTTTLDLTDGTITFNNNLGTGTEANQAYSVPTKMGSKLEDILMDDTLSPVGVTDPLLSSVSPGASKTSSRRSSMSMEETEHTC

[21] = molecular target: Photoreceptor-specific nuclear receptor (Homo sapiens, UniProt Q9Y5X4); type: functional, cell-based;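 note: CHO-S cells with Gal4-NCOR and VP16-NR2E3 two-hybrid luciferase reporter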
[22] = non-specific 3'UTR reporter inhibition in Clone20-Shn3RL – cell-based, Renilla luciferase, cherry-picked, counter-screen for Shn3 inhibitor project, dose response (AID 624133); type: functional
[23] = test system: A-375; test: proliferation inhibition in MITF-low A375 cells – cell-based, cherry-pick samples, set 2, counter-screen for MITF modulator project, dose response (AID 540335); type: functional; conditions: Homo sapiens
[24] = HEK-293T viability loss, compound-treated – cell-based, uHTS hits, cytotoxicity control for B/T-cell NF-kB inhibitor project, dose response (AID 489019); type: functional;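 note: IC50 reflects cytotoxicity as loss of cell viability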

NS3, sequence (A3EZJ3 whole entry): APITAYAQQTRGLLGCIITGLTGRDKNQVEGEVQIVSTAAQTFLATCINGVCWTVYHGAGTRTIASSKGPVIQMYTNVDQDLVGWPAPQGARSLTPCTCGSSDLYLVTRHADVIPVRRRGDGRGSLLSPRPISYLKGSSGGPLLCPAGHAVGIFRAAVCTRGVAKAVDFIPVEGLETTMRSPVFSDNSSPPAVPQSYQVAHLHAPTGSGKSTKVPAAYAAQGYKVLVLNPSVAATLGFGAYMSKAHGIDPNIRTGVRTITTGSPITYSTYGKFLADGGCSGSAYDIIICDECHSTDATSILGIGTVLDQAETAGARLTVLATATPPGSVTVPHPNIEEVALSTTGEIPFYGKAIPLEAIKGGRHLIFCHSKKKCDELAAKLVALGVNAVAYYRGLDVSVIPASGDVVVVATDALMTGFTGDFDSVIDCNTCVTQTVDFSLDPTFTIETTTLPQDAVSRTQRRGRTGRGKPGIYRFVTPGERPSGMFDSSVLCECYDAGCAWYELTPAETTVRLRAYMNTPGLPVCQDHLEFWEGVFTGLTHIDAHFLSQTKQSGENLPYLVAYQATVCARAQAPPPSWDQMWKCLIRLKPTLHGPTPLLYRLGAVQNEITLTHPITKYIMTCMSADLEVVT
Dual specificity protein kinase CLK1, sequence (P49759 whole entry): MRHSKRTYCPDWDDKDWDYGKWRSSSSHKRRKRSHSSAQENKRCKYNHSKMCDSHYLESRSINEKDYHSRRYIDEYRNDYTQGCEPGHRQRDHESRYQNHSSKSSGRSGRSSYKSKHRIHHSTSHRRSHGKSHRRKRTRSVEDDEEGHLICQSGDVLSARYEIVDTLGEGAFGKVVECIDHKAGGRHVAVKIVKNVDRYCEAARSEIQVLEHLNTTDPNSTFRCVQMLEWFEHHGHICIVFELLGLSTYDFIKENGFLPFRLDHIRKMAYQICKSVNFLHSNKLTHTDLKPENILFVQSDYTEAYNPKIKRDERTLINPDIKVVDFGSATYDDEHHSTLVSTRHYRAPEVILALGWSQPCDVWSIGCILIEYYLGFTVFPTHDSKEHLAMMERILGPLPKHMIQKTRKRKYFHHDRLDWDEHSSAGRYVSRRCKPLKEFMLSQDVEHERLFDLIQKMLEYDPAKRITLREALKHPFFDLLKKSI
Photoreceptor-specific nuclear receptor, sequence (Q9Y5X4 whole entry, the tested form may be a part): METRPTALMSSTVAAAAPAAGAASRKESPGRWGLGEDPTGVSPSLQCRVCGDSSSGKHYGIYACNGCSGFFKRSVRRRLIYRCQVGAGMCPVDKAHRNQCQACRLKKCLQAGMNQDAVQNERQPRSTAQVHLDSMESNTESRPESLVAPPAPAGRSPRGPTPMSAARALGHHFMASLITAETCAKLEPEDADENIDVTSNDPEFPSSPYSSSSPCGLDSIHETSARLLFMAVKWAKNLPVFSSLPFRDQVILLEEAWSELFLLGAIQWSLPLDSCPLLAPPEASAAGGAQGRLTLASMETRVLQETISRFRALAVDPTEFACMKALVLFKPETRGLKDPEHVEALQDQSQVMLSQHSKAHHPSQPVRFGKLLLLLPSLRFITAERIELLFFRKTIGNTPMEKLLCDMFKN
Genome polyprotein, sequence (P29990 2492-3391 limits assumed): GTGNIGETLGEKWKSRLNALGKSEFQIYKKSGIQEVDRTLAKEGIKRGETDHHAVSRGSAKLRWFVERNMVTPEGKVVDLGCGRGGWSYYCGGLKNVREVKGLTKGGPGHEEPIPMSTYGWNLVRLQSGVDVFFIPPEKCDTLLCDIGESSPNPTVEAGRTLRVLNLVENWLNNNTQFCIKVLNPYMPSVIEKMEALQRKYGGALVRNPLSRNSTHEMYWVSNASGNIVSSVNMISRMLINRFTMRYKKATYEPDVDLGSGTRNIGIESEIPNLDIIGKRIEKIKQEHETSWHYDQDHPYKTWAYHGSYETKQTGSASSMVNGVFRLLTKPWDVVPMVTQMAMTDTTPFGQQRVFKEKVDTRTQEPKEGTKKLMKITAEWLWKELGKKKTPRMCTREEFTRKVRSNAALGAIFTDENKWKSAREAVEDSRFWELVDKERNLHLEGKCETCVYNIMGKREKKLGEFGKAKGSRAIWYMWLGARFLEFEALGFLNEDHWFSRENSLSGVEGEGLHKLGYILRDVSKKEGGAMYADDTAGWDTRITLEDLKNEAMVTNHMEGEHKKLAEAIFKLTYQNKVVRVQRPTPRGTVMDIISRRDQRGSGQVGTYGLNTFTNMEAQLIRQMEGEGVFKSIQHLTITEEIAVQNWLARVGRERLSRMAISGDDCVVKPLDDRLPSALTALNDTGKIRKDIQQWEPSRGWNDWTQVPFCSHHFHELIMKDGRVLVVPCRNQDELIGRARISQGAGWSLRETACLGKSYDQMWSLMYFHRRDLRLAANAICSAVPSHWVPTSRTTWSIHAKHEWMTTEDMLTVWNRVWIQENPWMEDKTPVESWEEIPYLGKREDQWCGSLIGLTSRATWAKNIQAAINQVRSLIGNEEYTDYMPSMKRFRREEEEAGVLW

O=C(CCC(=O)OCc1cccc(C(=O)Oc2ccccc2)c1)Nc1cccc2ccccc12
AC50 [1]: 212 µM (active)
IC50 [2]: < 0.4 µM (not active)
AC50 [3]: 23.5 µM (active)

CCCCCOc1ccc(C2C(C(=O)c3ccc(C)o3)=C(O)C(=O)N2c2cc(C)on2)cc1 (centres undefined)
AC50 [4]: 6.14 µM (active)
IC50 [5]: 2.21 µM (active)
IC50 [6]: 31.6 µM (active)
IC50 [7]: > 80 µM (inactive)
CC50 [8]: > 100 µM (inactive)
CC50 [9]: > 40 µM (active)
IC50 [10]: 2.44 µM (active)

c1ccc(N2CCN(CC3CCCCC3)CC2)cc1
AC50 [11]: 95.2 µM (active)
AC50 [12]: 91.4 µM (active)
AC50 [13]: 25.3 µM (active)

O=c1cc(-c2ccccc2Cl)oc2c(NS(=O)(=O)c3ccccc3C(F)(F)F)ccc(O)c12
AC50 [14]: 18.9 µM (active)
AC50 [15]: 65.4 µM (active)
CC50 [16]: 48.5 µM (active)

C=CCn1c(C)cc(C(=O)CN2C(=O)c3ccccc3S2(=O)=O)c1C
AC50 [17]: > 35 µM (active)
IC50 [18]: 1.17 µM (active)
AC50 [19]: 0.974 µM (active)
AC50 [20]: 0.666 µM (active)
IC50 [21]: 2.46 µM (active)
AC50 [22]: 23.2 µM (active)
AC50 [23]: > 35 µM (active)
IC50 [24]: > 80 µM (inactive)
